Reference: ChEMBL document CHEMBL1799987, “In vivo and in vitro SAR of tetracyclic MAPKAP-K2 (MK2) inhibitors. Part II” (Bioorg Med Chem Lett, 2010)
≈ marks a conversion by molar mass, not a printed value. Blank lines part the entries; values can stand above or below the compound they belong to. Calls of active or inactive are those of the source. No cut-off for these calls is given here.

Tests used:
[1] = Thermodynamic solubility of the compound at pH 6.8; format: physicochemical; settings: buffer, read-out: Therm_solubility
Plasma = test: Plasma concentration in OF1 mouse at 100 mg/kg, po; format: ADME, organism-based; design: dose 100 mg/kg, route oral; settings: in vivo
PBMC = test: cells; settings: Homo sapiens
Mus musculus [2] = organism: Mus musculus; test: animal or person; settings: OF1, po, 1 h, read-out: INH
[3] = Clearance in rat at 1 mg/kg, po; format: ADME, organism-based; design: dose 1 mg/kg, route oral; settings: in vivo
Rattus norvegicus [4] = test: Volume of distribution at steady state in rat at 1 mg/kg, po; format: ADME, organism-based; design: dose 1 mg/kg, route oral; settings: in vivo
[5] = AUC in rat at 1 mg/kg, po; format: ADME, organism-based; design: dose 1 mg/kg, route oral; settings: plasma
[6] = Half life in rat at 1 mg/kg, po; format: ADME, organism-based; design: dose 1 mg/kg, route oral; settings: in vivo
Mus musculus [7] = test: Antiarthritic activity in DBA/1 mouse assessed as inhibition of collagen-induced paw swelling at 100 mg/kg, po BID; format: functional, organism-based; design: dose 100 mg/kg
Mus musculus [8] = test: Antiarthritic activity in DBA/1 mouse assessed as inhibition of collagen-induced joint damage at 100 mg/kg, po BID; format: functional, organism-based; design: dose 100 mg/kg
Mus musculus [9] = test: Antiarthritic activity in DBA/1 mouse assessed as inhibition of collagen-induced joint erosion at 100 mg/kg, po BID; format: functional, organism-based; design: dose 100 mg/kg
Mus musculus [10] = test: Antiarthritic activity in DBA/1 mouse assessed as inhibition of collagen-induced proteoglycan loss at 100 mg/kg, po BID; format: functional, organism-based; design: dose 100 mg/kg
Mus musculus [11] = test: Antiarthritic activity in DBA/1 mouse assessed as inhibition of collagen-induced inflammatory cell infiltration at 100 mg/kg, po BID; format: functional, organism-based; design: dose 100 mg/kg
Rattus norvegicus [12] = test: Antiarthritic activity in rat assessed as inhibition of antigen-induced paw swelling at 100 mg/kg, po BID; format: functional, organism-based; design: dose 100 mg/kg
Mus musculus [13] = test: Toxicity in collagen-induced arthritic DBA/1 mouse model assessed as body weight reduction at 100 mg/kg, po BID; format: organism-based; design: dose 100 mg/kg, route oral; settings: in vivo
Rattus norvegicus [14] = test: Toxicity in antigen-induced arthritic rat model assessed as body weight reduction at 100 mg/kg, po BID; format: organism-based; design: dose 100 mg/kg, route oral; settings: in vivo
[15] = Plasma concentration in collagen-induced arthritic DBA/1 mouse model at 100 mg/kg, po BID measured 2 hrs post last dose; format: ADME, organism-based; design: dose 100 mg/kg, route oral
[16] = Plasma concentration in collagen-induced arthritic DBA/1 mouse model at 100 mg/kg, po BID measured 6 hrs post last dose; format: ADME, organism-based; design: dose 100 mg/kg, route oral
[17] = Plasma concentration in antigen-induced arthritic rat model at 100 mg/kg, po BID measured 2 hrs post last dose; format: ADME, organism-based; design: dose 100 mg/kg, route oral
[18] = Plasma concentration in antigen-induced arthritic rat model at 100 mg/kg, po BID measured 6 hrs post last dose; format: ADME, organism-based; design: dose 100 mg/kg, route oral
[19] = Plasma concentration in antigen-induced arthritic rat model at 100 mg/kg, po BID measured 16 hrs post last dose; format: ADME, organism-based; design: dose 100 mg/kg, route oral
[20] = Oral bioavailability in rat at 1 mg/kg; format: ADME, organism-based; settings: in vivo
[21] = Cmax in rat at 1 mg/kg, po; format: ADME, organism-based; design: dose 1 mg/kg, route oral; settings: in vivo

SMILES: CN1CC2(CNC(=O)c3c2[nH]c2c3CCc3cnc(-c4ccc(F)nc4)cc3-2)C1
solubility thermodynamic [1]: 47 µM (≈ 18.3 µg/mL)
concentration (Plasma): 0.6 µM
IC50 (PBMC): 100 nM
inhibition in vivo at 100 mg/kg (Mus musculus [2]): 26%

SMILES: CN1CC2(CNC(=O)c3c2[nH]c2c3Cc3cnc(-c4ccccc4F)cc3-2)C1
solubility thermodynamic [1]: 69 µM (≈ 25.8 µg/mL)
IC50 (PBMC): > 10000 nM

SMILES: O=C1NCC2(CNC2)c2[nH]c3c(c21)CCc1cnc(-c2cccc(F)c2)cc1-3
IC50 (PBMC): 200 nM

SMILES: CC(=O)N1CC2(CNC(=O)c3c2[nH]c2c3CCc3cnc(-c4ccccc4F)cc3-2)C1
solubility thermodynamic [1]: 24 µM (≈ 9.99 µg/mL)
IC50 (PBMC): 6500 nM

SMILES: CN1CC2(CNC(=O)c3c2[nH]c2c3CCc3cnc(-c4ccc(OCCN5CCOCC5)cc4)nc3-2)C1
IC50 (PBMC): 100 nM

SMILES: O=C1NC2(CC2)Cc2[nH]c3c(c21)CCc1cnc(-c2ccc(OCCN4CCOCC4)cc2)cc1-3
solubility thermodynamic [1]: < 4 µM
IC50 (PBMC): 200 nM

SMILES: O=C1NCC2(CNC2)c2[nH]c3c(c21)CCc1cnc(-c2ccccc2F)cc1-3
solubility thermodynamic [1]: 337 µM (≈ 126 µg/mL)
IC50 (PBMC): 100 nM

SMILES: COc1ccc(-c2cc3c(cn2)CCc2c-3[nH]c3c2C(=O)NCC3)cc1
solubility thermodynamic [1]: < 4 µM
IC50 (PBMC): 100 nM

SMILES: O=C1NCC2(CN(CCF)C2)c2[nH]c3c(c21)CCc1cnc(-c2ccccc2F)cc1-3
IC50 (PBMC): 1500 nM

SMILES: CN1CC2(CNC(=O)c3c2[nH]c2c3CCc3cnc(-c4ccccc4F)cc3-2)C1
solubility thermodynamic [1]: > 1000 µM
concentration (Plasma): 6 µM
IC50 (PBMC): 100 nM
inhibition in vivo at 100 mg/kg (Mus musculus [2]): 90%

SMILES: Cn1c2c(c3c1C1(CNC1)CNC3=O)CCc1cnc(-c3ccccc3F)cc1-2
solubility thermodynamic [1]: 54 µM (≈ 21 µg/mL)
IC50 (PBMC): 1800 nM

SMILES: O=C1NC2(CC2)Cc2[nH]c3c(c21)CCc1cnc(-c2ccc(F)nc2)cc1-3
CL/F [3]: 12 mL/min/kg
Vdss (Rattus norvegicus [4]): 1.9 L/kg
AUC [5]: 2 µM·h
half-life [6]: 78 min
Activity (Mus musculus [7]): Active
Activity (Mus musculus [8]): Active
Activity (Mus musculus [9]): Active
Activity (Mus musculus [10]): Active
Activity (Mus musculus [11]): Active
Activity (Rattus norvegicus [12]): Active
solubility thermodynamic [1]: 9 µM (≈ 3.24 µg/mL)
concentration (Plasma): 30 µM
Activity (Mus musculus [13]): Non-toxic
Activity (Rattus norvegicus [14]): Non-toxic
concentration at 2 h [15]: 16 µM
concentration at 6 h [16]: 2400 nM
concentration at 2 h [17]: 11.7 µM
concentration at 6 h [18]: 9.8 µM
concentration at 16 h [19]: 500 nM
bioavailability [20]: 24%
Cmax [21]: 105 nM
IC50 (PBMC): 300 nM
inhibition in vivo at 100 mg/kg (Mus musculus [2]): 96%

SMILES: O=C1NCCc2[nH]c(-c3ccnc(-c4ccccc4F)c3)cc21
solubility thermodynamic [1]: 337 µM (≈ 104 µg/mL)
IC50 (PBMC): > 10000 nM

Second part, led by results:

solubility thermodynamic [1]: < 4 µM
SMILES: COc1ccc(-c2ncc3c(n2)-c2[nH]c4c(c2CC3)C(=O)NCC42CC2)cc1
IC50 (PBMC): 400 nM

solubility thermodynamic [1]: < 4 µM
SMILES: O=C1NC2(CC2)Cc2[nH]c3c(c21)CCc1cnc(-c2ccc(F)nc2)nc1-3
IC50 (PBMC): 700 nM

solubility thermodynamic [1]: < 4 µM
SMILES: COc1ccc(-c2cc3c(cn2)CCc2c-3[nH]c3c2C(=O)NC2(C3)CN(C)C2)cc1
IC50 (PBMC): 1100 nM

solubility thermodynamic [1]: < 4 µM
concentration (Plasma): 25 µM
SMILES: COc1ccc(-c2cc3c(cn2)CCc2c-3[nH]c3c2C(=O)NC2(CC2)C3)cc1
IC50 (PBMC): 200 nM
inhibition in vivo at 100 mg/kg (Mus musculus [2]): 81%

solubility thermodynamic [1]: 43 µM (≈ 17.3 µg/mL)
SMILES: COc1ccc(-c2ncc3c(n2)-c2[nH]c4c(c2CC3)C(=O)NCC42CN(C)C2)cc1
IC50 (PBMC): 100 nM

solubility thermodynamic [1]: < 4 µM
SMILES: O=C1NC2(CC2)Cc2[nH]c3c(c21)CCc1cnc(-c2ccc(OCCN4CCOCC4)cc2)nc1-3
IC50 (PBMC): 300 nM

solubility thermodynamic [1]: < 4 µM
SMILES: COc1ccc(-c2ncc3c(n2)-c2[nH]c4c(c2CC3)C(=O)NC2(CC2)C4)cc1

solubility thermodynamic [1]: < 5 µM
SMILES: COc1ccc(-c2ncc3c(n2)-c2[nH]c4c(c2CC3)C(=O)NCC4)cc1
IC50 (PBMC): 900 nM

solubility thermodynamic [1]: 32 µM (≈ 12.4 µg/mL)
SMILES: COc1ccc(-c2cc3c(cn2)CCc2c-3[nH]c3c2C(=O)NC2(CNC2)C3)cc1
IC50 (PBMC): 1300 nM
